Test results reported in patent publication EP1676574A2, “Methods for promoting survival of transplanted tissues and cells” (Johnson & Johnson Vision Care, Inc., priority 2004, dated 2006).

Experiments:
[1] = system: Peripheral blood mononuclear cells (PBMCs); assay: Plasma clotting assay with PBMCs; format: cell-based, human; settings: p38 inhibitor 10 µM pre-incubated 18 to 24 hours, anti-TF antibody added 30 minutes prior to clotting, OD405
Experimental: Peripheral venous blood was obtained by consent from normal, healthy volunteers and mononuclear cells were isolated using Histopaque 1077 (Sigma) density gradient centrifugation. Following three washes with RPMI (Invitrogen) supplemented with 1% fetal calf serum (FCS), cells were counted and viability was assessed using a Guava PCA-96 instrument (Guava Technologies, Hayward, CA). Cells were resuspended to 1.67 x 10^6 cells/mL in RPMI media containing 10% FCS, and 4 mL/well were added to a 6-well dish (Corning-Costar). Lipopolysaccharide (LPS) was diluted into cell cultures to a final concentration of 10 ng/ml. p38 inhibitor compound 1 was added to cell cultures at a final concentration of 10 µM. An equivalent dilution of DMSO was added to untreated cultures. The following four assay conditions were: (+) LPS (+) p38 inhibitor, (+) LPS (-) p38 inhibitor, (-) LPS (+) p38 inhibitor, and (-) LPS (-) p38 inhibitor. […]
Plasma Clotting Assay. […] Clotting was monitored at 15 second intervals for 2 hours at room temperature using a Spectra MAX 190 (Molecular Devices, Sunnyvale, CA) at a wavelength of 405 nm. […]
PBMCs ([…] in 100 µl of HBSS) were pre-incubated with 25 µl of anti-TF antibody compound 3 (10 µg/ml) for 30 minutes at room temperature in the same 96-well plate as the untreated cells above. […] CaCl2 and pooled human plasma were added and the clotting reaction was monitored as described above.

[2] = system: Human mesenchymal stem cells (MSC); assay: Plasma clotting assay with human mesenchymal stem cells; format: cell-based; settings: p38 inhibitor 10 µM pre-culture 10 days; anti-TF antibody 30 minutes pre-binding; untreated cells 1042.0
Experimental: (§1) In the previous example, cells were stimulated overnight to produce TF by LPS induction. Inhibition of this process was achieved by addition of p38 inhibitor compound 1, evaluated by plasma clotting assay. In this example, two types of cells were pre-cultured with the p38 inhibitors compound 1 and compound 2 for 10 days to evaluate the effect of p38 MAPK inhibitors on coagulation. Cells were separately treated using a final concentration of 10 µM of each p38 inhibitor. Parallel treatments of DMSO vehicle were included as a control. Media, containing the above compounds were replenished during culture at intervals of every 2 days.
(§2) Human mesenchymal stem cells (MSC) were isolated from whole bone marrow purchased from Cambrex BioScience Walkersville, Inc. Cells were obtained from 10-ml aspirates taken from the iliac crest of normal human donors (age about 20 years). Mononuclear cells were isolated by gradient centrifugation. […]
(§3) The plasma clotting assay was performed as described in Example 1. Cells were lightly trypsinized from culture on the day of assay, washed, counted, and viability was determined before adjusting to 10^6 cells/ml in HBSS. […] Coagulation was monitored at room temperature in a kinetic plate reader using 15 second interval readings at 405 nm over 60 to 120 minutes. A final reading of T1/2 maximal clotting time was obtained for each sample condition. […]

[3] = system: J82 cells; assay: Plasma clotting assay with J82 bladder carcinoma cells; format: cell-based, human; settings: p38 inhibitor 10 µM pre-culture 10 days; anti-TF antibody 30 minutes pre-binding; untreated cells 155.01
Experimental: as §1, §2, §3

[4] = system: isolated mouse islets; assay: Plasma clotting assay with isolated mouse islets; format: cell-based, Balb/c mice; settings: 10 µM p38 inhibitor, islets cultured 72 hours; 50 islets/well; vehicle control 388.6 (compound 2 experiment), 488.9 (second experiment)
Experimental: Pancreata were harvested from Balb/c mice via cannulation of the common bile duct and perfusion with a liberase solution (Roche). Pancreata were digested at 37°C for 15 minutes followed by discontinuous ficoll gradient centrifugation to remove acinar and ductal tissue.
Islets of similar size were collected and plated in 3 ml of islet growth medium in a 6-well culture dish (300 islets per well) with or without p38 MAPK inhibitors (10 µM compound 1 or compound 2). Vehicle control was an equivalent dilution of DMSO. Islets were cultured at 37°C in 5% CO2 for 72 hours. The three treatment conditions were: vehicle control, (+) p38 inhibitor compound 1, and (+)p38 inhibitor compound 2.
Plasma Clotting Assay. […] Clotting was monitored at 15 second intervals for 2 hours at room temperature in a Spectra MAX 190 (Molecular Devices, Sunnyvale, CA) at 405nm. Times to half maximum OD were calculated as 388.6 seconds for the vehicle control and 596.9 seconds for cells treated with p38 inhibitor compound 2. […] In a second experiment, the time to half maximum was calculated as 488.9 seconds for the vehicle control and 974.7 seconds for treated islets. […]

OCCC#Cc1nc(-c2ccc(F)cc2)c(-c2ccncc2)n1CCCc1ccccc1 [compound 1, 4-[4-(4-fluorophenyl)-1-(3-phenylpropyl)-5-(4-pyridinyl)-1H-imidazol-2-yl]-3-butyn-1-ol]
time to half the maximum OD ([1]; (+) LPS 10 ng/ml, (+) LPS cells without inhibitor 928.6): 1837.3 s | time to half the maximum OD ([1]; (-) LPS, untreated cells 2946.4): 3289.0 s | time to half the maximum OD [2]: 1882.2 s | times to reach ½ maximal OD [3]: 160.9 s | Times to half maximum OD [4]: 974.7 s
